Test results published in patent US20240150360A1 (THE REGENTS OF THE UNIVERSITY OF MICHIGAN, priority 2021, published 2024).
Where two headings read alike, the source gives them in different places.

Assays:
22Rv1 cells = experiment: Cell growth inhibition assay (CellTiter-Glo) in 22Rv1; assay type: cell-based, human; settings: Homo sapiens, 22Rv1, 96 h, read-out: Cell Growth Inhibition (IC50) 22Rv1
Description: Biological Assays. CBP/p300 degradation activity and cell growth inhibition were evaluated in the human prostate cancer cell line 22Rv1 (ATCC© CRL-2505™) purchased from the American Type Culture Collection (ATCC), Manassas, VA, and maintained and cultured in Dulbecco's Modified Eagle's medium (DMEM) containing 10% fetal bovine serum, 1 unit/ml of penicillin and 1 μg/ml of streptomycin. Cells with 3-8 passages after purchase were used in experiments.
Cell Growth Inhibition Assay Protocol. 22RV1 cells were seeded at a concentration of 4000 cells/well in 100 μl culture medium and 2 μl of test compound (final concentration start from 10 μM and 3 times dilution) into 96 well microplates (Corning 3903). The cell cultures were incubated for 96 h at +37° C. and 5% CO2. The plate and its contents were equilibrated to room temperature for approximately 30 minutes. 100 μl of CellTiter-Glo® 2.0 Reagent equal to the volume of cell culture medium present was added in each well. The contents were mixed for 2 minutes on an orbital shaker. The plate was allowed to incubate at room temperature for 10 minutes. The luminescence was recorded. The data was analyzed by Prism GraphPad 8.

HL60 = experiment: Cell growth inhibition in HL60; assay type: cell-based; settings: Homo sapiens
CBP = target: T1, CBP (Homo sapiens, UniProt Q92793); experiment: CBP degradation in 22Rv1 cells (5 h); assay type: cell-based; settings: 22Rv1 cells, 5 h; for Dmax: 22Rv1, 5 h, read-out: CBP Degradation (22Rv1, 5 h) DCmax
T1 construct: endogenous in cells; host or cells: 22Rv1 (ATCC CRL-2505) human prostate cancer cells
Source text: (§1) Biological Assays. […] Cells with 3-8 passages after purchase were used in experiments.

P300 = target: T2, P300 (Homo sapiens, UniProt Q09472); experiment: P300 degradation in 22Rv1 cells (5 h); assay type: cell-based; settings: 22Rv1 cells, 5 h; for Dmax: read-out: P300 Degradation (22Rv1, 5 h) DCmax
T2 construct: endogenous in cells; host or cells: 22Rv1 (ATCC CRL-2505) human prostate cancer cells
Source text: as §1

[1] = HL-60, read-out: Cell Growth Inhibition (IC50) HL60

T2 sequence (Q09472 whole entry): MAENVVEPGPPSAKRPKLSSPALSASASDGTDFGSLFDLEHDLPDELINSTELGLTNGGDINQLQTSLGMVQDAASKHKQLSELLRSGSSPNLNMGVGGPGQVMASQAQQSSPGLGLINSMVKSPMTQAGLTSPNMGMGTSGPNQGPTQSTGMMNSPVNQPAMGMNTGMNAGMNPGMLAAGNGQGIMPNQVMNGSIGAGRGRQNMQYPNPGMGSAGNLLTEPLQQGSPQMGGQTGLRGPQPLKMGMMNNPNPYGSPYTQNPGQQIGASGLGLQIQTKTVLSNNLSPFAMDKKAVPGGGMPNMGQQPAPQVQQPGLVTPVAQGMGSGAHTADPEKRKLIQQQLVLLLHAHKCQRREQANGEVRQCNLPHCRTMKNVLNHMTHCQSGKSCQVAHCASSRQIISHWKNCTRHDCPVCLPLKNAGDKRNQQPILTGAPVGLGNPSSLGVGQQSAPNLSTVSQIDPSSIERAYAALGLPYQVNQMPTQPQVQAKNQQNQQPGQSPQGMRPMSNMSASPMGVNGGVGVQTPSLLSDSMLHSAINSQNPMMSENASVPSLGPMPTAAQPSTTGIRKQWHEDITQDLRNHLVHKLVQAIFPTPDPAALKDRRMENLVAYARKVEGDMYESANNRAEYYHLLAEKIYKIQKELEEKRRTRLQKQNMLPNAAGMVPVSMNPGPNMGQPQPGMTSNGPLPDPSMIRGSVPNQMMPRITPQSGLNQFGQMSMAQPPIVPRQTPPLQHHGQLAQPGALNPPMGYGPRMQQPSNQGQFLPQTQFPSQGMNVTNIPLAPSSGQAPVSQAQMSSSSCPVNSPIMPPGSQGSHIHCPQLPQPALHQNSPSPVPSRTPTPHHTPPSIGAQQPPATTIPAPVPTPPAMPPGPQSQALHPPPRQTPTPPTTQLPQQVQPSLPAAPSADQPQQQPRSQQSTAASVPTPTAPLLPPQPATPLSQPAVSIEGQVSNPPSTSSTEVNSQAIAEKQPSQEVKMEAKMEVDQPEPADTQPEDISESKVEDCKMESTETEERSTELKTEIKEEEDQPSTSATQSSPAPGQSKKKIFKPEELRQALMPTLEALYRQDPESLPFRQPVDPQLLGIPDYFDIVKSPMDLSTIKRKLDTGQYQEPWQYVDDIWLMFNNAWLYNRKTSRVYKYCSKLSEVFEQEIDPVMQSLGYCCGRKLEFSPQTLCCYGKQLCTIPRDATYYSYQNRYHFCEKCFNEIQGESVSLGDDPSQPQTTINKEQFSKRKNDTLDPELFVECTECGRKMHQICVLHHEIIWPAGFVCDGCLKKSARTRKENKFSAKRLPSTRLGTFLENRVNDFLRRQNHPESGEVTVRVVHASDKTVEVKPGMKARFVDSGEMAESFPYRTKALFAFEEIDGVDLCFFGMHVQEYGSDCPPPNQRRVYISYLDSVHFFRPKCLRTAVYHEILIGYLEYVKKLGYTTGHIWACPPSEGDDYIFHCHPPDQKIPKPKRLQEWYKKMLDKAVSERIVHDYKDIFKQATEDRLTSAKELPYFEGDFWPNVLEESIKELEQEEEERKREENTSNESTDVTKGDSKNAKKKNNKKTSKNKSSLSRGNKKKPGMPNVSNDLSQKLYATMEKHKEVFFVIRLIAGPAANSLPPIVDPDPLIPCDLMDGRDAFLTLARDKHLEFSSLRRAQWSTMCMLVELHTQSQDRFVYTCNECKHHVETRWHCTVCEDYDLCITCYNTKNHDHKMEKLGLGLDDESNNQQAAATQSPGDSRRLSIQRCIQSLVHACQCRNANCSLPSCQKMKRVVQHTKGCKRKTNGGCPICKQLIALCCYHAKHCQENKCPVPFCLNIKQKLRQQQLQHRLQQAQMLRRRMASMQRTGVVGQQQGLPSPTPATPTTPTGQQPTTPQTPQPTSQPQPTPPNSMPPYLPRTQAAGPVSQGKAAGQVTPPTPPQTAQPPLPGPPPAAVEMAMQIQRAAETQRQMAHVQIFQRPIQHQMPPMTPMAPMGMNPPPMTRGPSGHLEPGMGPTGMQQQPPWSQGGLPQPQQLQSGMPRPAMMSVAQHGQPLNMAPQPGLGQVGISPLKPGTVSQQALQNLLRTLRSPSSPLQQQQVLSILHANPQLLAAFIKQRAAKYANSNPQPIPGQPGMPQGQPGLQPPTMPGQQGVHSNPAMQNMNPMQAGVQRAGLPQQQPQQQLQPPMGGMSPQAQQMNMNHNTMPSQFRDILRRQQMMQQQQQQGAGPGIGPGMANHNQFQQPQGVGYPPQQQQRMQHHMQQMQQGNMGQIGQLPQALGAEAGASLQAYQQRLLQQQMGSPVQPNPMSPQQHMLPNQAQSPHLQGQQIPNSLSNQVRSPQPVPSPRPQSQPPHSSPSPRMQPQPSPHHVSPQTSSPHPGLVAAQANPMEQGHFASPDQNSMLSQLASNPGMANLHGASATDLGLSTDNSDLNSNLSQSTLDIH
T1 sequence (Q92793 whole entry): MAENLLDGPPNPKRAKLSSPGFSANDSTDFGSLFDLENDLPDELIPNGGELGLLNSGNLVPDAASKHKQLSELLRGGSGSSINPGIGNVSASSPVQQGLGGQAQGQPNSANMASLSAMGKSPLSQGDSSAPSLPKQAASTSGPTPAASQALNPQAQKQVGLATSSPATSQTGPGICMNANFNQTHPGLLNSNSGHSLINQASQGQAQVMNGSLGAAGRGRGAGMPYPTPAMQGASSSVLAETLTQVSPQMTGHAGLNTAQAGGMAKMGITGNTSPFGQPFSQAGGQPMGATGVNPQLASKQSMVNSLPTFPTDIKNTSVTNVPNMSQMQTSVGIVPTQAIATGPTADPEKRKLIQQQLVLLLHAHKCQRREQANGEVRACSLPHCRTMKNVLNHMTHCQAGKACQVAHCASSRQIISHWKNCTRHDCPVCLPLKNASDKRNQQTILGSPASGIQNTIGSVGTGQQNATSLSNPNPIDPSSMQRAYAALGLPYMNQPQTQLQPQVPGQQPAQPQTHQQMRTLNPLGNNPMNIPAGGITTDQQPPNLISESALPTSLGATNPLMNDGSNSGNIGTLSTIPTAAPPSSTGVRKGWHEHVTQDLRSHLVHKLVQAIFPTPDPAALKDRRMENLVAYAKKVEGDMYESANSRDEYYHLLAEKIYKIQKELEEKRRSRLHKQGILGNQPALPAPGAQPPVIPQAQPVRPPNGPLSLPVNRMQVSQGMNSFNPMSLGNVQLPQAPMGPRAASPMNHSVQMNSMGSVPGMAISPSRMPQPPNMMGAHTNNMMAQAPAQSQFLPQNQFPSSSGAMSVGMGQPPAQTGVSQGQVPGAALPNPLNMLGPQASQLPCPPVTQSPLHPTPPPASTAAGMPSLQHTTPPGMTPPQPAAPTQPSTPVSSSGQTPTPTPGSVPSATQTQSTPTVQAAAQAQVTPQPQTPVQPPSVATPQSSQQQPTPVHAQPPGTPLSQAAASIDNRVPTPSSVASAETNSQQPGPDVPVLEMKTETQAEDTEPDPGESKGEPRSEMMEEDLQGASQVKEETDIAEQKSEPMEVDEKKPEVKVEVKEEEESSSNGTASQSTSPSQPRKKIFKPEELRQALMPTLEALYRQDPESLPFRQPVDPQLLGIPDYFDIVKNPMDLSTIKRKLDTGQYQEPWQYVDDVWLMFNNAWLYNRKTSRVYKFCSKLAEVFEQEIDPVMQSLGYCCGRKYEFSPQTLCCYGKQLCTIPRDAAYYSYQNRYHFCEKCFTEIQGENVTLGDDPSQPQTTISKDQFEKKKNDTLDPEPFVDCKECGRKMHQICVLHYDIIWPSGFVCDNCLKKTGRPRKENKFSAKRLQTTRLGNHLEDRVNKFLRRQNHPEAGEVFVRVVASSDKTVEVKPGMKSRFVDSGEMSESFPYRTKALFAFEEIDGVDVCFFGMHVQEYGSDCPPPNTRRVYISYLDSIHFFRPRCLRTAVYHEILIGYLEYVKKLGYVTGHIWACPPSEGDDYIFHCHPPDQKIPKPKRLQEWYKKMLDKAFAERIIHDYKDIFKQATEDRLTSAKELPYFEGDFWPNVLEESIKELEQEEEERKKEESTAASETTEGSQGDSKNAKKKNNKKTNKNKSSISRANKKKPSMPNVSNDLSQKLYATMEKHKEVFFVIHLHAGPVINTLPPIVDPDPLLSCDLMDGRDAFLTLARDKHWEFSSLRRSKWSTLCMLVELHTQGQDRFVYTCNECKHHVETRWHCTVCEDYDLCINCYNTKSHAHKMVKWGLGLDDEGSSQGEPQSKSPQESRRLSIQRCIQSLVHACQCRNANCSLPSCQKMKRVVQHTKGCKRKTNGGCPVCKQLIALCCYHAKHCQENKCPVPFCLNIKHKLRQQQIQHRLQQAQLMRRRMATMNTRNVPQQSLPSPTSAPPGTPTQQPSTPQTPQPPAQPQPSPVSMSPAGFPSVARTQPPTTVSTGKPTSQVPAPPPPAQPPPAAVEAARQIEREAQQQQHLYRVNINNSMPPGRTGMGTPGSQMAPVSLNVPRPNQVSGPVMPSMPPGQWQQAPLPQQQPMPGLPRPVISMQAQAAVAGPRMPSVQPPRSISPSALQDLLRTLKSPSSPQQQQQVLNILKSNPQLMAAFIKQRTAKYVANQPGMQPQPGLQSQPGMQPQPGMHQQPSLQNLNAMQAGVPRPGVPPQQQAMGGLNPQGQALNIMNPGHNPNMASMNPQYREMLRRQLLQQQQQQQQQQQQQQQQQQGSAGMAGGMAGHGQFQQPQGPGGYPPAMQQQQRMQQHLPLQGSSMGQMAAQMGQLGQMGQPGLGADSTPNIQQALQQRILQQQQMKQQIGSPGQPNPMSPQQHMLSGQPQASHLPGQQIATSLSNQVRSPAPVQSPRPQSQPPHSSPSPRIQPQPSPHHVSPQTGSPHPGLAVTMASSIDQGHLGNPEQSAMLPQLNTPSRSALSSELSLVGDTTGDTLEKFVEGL

| Dmax (CBP) [%] | DC50 (CBP) [nM] | DC50 (P300) [nM] | Dmax (P300) [%] | SMILES | IC50 (22Rv1 cells) [nM] | IC50 (HL60; [1]) [nM] | further results |
| --- | --- | --- | --- | --- | --- | --- | --- |
| – | – | – | – | CC(=O)N1CCc2c(c(N3CCCc4cc(-c5cnn(C)c5)c(C(F)F)cc43)nn2C[C@H]2CC[C@H](N3Cc4cc5c(cc4C3)C(=O)N(C3CCC(=O)NC3=O)C5=O)CC2)C1 (relative stereo) [CP-039, 6-(-4-((5-acetyl-3-(7-(difluoromethyl)-6-(1-methyl-1H-pyrazol-4-yl)-3,4-dihydroquinolin-1(2H)-yl)-4,5,6,7-tetrahydro-1H-pyrazolo[4,3-c]pyridin-1-yl)methyl)cyclohexyl)-2-(2,6-dioxopiperidin-3-yl)-6,7-dihydropyrrolo[3,4-f]isoindole-1,3(2H,5H)-dione] | < 1000 | < 100 | – |
| > 90 | < 10 | – | – | CC(=O)N1CCc2c(c(N3CCCc4cc(-c5cnn(C)c5)c(C(F)F)cc43)nn2C[C@H]2CC[C@@H](N3CCc4cc5c(cc4C3)C(=O)N(C3CCC(=O)NC3=O)C5=O)CC2)C1 (relative stereo) [CP-042, 6-(4-((5-acetyl-3-(7-(difluoromethyl)-6-(1-methyl-1H-pyrazol-4-yl)-3,4-dihydroquinolin-1(2H)-yl)-4,5,6,7-tetrahydro-1H-pyrazolo[4,3-c]pyridin-1-yl)methyl)cyclohexyl)-2-(2,6-dioxopiperidin-3-yl)-5,6,7,8-tetrahydro-1H-pyrrolo[3,4-g]isoquinoline-1,3(2H)-dione] | – | – | IC50 (22Rv1 cells; 22Rv1 cells, 96 h incubation): < 1000 nM; IC50 (HL60; HL-60, HL60 cells, read-out: Cell Growth Inhibition (IC50) HL60): < 100 nM |
| – | – | – | – | CC(=O)N1CCc2c(c(N3CCCc4cc(-c5cnn(C)c5)c(C(F)F)cc43)nn2[C@H]2CC[C@@H](CN3Cc4cc5c(cc4C3)C(=O)N(C3CCC(=O)NC3=O)C5=O)CC2)C1 (relative stereo) [CP-046, 6-((4-(5-acetyl-3-(7-(difluoromethyl)-6-(1-methyl-1H-pyrazol-4-yl)-3,4-dihydroquinolin-1(2H)-yl)-4,5,6,7-tetrahydro-1H-pyrazolo[4,3-c]pyridin-1-yl)cyclohexyl)methyl)-2-(2,6-dioxopiperidin-3-yl)-6,7-dihydropyrrolo[3,4-f]isoindole-1,3(2H,5H)-dione] | < 100 | < 100 | – |
| – | – | – | – | CC(=O)N1CCc2c(c(N3CCCc4cc(-c5cnn(C)c5)c(C(F)F)cc43)nn2C2CCN(C(=O)CN3Cc4cc5c(cc4C3)C(=O)N(C3CCC(=O)NC3=O)C5=O)CC2)C1 (stereo not drawn) [CP-005, 6-(2-(4-(5-acetyl-3-(7-(difluoromethyl)-6-(1-methyl-1H-pyrazol-4-yl)-3,4-dihydroquinolin-1(2H)-yl)-4,5,6,7-tetrahydro-1H-pyrazolo[4,3-c]pyridin-1-yl)piperidin-1-yl)-2-oxoethyl)-2-(2,6-dioxopiperidin-3-yl)-6,7-dihydropyrrolo[3,4-f]isoindole-1,3(2H,5H)-dione] | < 100 | < 100 | – |
| – | – | – | – | CC(=O)N1CCc2c(c(N3CCCc4cc(-c5cnn(C)c5)c(C(F)F)cc43)nn2C2CCC(N3Cc4cc5c(cc4C3)C(=O)N(C3CCC(=O)NC3=O)C5=O)CC2)C1 (stereo not drawn) [CP-037, 6-(4-(5-acetyl-3-(7-(difluoromethyl)-6-(1-methyl-1H-pyrazol-4-yl)-3,4-dihydroquinolin-1(2H)-yl)-4,5,6,7-tetrahydro-1H-pyrazolo[4,3-c]pyridin-1-yl)cyclohexyl)-2-(2,6-dioxopiperidin-3-yl)-6,7-dihydropyrrolo[3,4-f]isoindole-1,3(2H,5H)-dione] | < 100 | < 100 | – |
| – | – | – | – | CC(=O)N1CCc2c(c(N3CCCc4cc(-c5cnn(C)c5)c(C(F)F)cc43)nn2C[C@H]2CC[C@@H](N3Cc4cc5c(cc4C3)C(=O)N(C3CCC(=O)NC3=O)C5=O)CC2)C1 (stereo partly drawn) [CP-040, 6-(4-((5-acetyl-3-(7-(difluoromethyl)-6-(1-methyl-1H-pyrazol-4-yl)-3,4-dihydroquinolin-1(2H)-yl)-4,5,6,7-tetrahydro-1H-pyrazolo[4,3-c]pyridin-1-yl)methyl)cyclohexyl)-2-(2,6-dioxopiperidin-3-yl)-6,7-dihydropyrrolo[3,4-f]isoindole-1,3(2H,5H)-dione] | < 1000 | < 100 | – |
| – | – | – | – | CC(=O)N1CCc2c(c(N3CCCc4cc(-c5cnn(C)c5)c(C(F)F)cc43)nn2C[C@H]2CC[C@H](CN3Cc4cc5c(cc4C3)C(=O)N(C3CCC(=O)NC3=O)C5=O)CC2)C1 (stereo partly drawn) [CP-043, 6-((4-((5-acetyl-3-(7-(difluoromethyl)-6-(1-methyl-1H-pyrazol-4-yl)-3,4-dihydroquinolin-1(2H)-yl)-4,5,6,7-tetrahydro-1H-pyrazolo[4,3-c]pyridin-1-yl)methyl)cyclohexyl)methyl)-2-(2,6-dioxopiperidin-3-yl)-6,7-dihydropyrrolo[3,4-f]isoindole-1,3(2H,5H)-dione] | < 10000 | < 1000 | – |
| – | – | – | – | CC(=O)N1CCc2c(c(N3CCCc4cc(-c5cnn(C)c5)c(C(F)F)cc43)nn2C2CCC(CCN3Cc4cc5c(cc4C3)C(=O)N(C3CCC(=O)NC3=O)C5=O)CC2)C1 (stereo not drawn) [CP-044, 6-(2-(4-(5-acetyl-3-(7-(difluoromethyl)-6-(1-methyl-1H-pyrazol-4-yl)-3,4-dihydroquinolin-1(2H)-yl)-4,5,6,7-tetrahydro-1H-pyrazolo[4,3-c]pyridin-1-yl)cyclohexyl)ethyl)-2-(2,6-dioxopiperidin-3-yl)-6,7-dihydropyrrolo[3,4-f]isoindole-1,3(2H,5H)-dione] | < 100 | < 100 | – |
| – | – | – | – | CC(=O)N1CCc2c(c(N3CCCc4cc(-c5cnn(C)c5)c(C(F)F)cc43)nn2[C@H]2CC[C@H](CN3Cc4cc5c(cc4C3)C(=O)N(C3CCC(=O)NC3=O)C5=O)CC2)C1 (stereo partly drawn) [CP-047, 6-((4-(5-acetyl-3-(7-(difluoromethyl)-6-(1-methyl-1H-pyrazol-4-yl)-3,4-dihydroquinolin-1(2H)-yl)-4,5,6,7-tetrahydro-1H-pyrazolo[4,3-c]pyridin-1-yl)cyclohexyl)methyl)-2-(2,6-dioxopiperidin-3-yl)-6,7-dihydropyrrolo[3,4-f]isoindole-1,3(2H,5H)-dione] | < 100 | < 100 | – |
| > 70 | < 10 | < 10 | > 70 | CC(=O)N1CCc2c(c(N3CCCc4cc(-c5cnn(C)c5)c(C(F)F)cc43)nn2C2CCC(N3CC4(Cc5cc6c(cc5C4)C(=O)N(C4CCC(=O)NC4=O)C6=O)C3)CC2)C1 (stereo not drawn) [CP-086, 1-(4-(5-acetyl-3-(7-(difluoromethyl)-6-(1-methyl-1H-pyrazol-4-yl)-3,4-dihydroquinolin-1(2H)-yl)-4,5,6,7-tetrahydro-1H-pyrazolo[4,3-c]pyridin-1-yl)cyclohexyl)-2′-(2,6-dioxopiperidin-3-yl)-5′,7′-dihydro-1′H-spiro[azetidine-3,6′-cyclopenta[f]isoindole]-1′,3′(2′H)-dione] | – | – | – |
| < 50 | > 1000 | > 1000 | < 50 | CC(=O)N1CCc2c(c(N3CCCc4cc(-c5cnn(C)c5)c(C(F)F)cc43)nn2C2CCC(N3CCc4ccc5c(c4C3)C(=O)N(C3CCC(=O)NC3=O)C5=O)CC2)C1 (stereo not drawn) [CP-087, 8-((1r,4r)-4-(5-acetyl-3-(7-(difluoromethyl)-6-(1-methyl-1H-pyrazol-4-yl)-3,4-dihydroquinolin-1(2H)-yl)-4,5,6,7-tetrahydro-1H-pyrazolo[4,3-c]pyridin-1-yl)cyclohexyl)-2-(2,6-dioxopiperidin-3-yl)-6,7,8,9-tetrahydro-1H-pyrrolo[3,4-h]isoquinoline-1,3(2H)-dione] | – | – | – |
| > 70 | < 10 | < 10 | > 70 | CC(=O)N1CCc2c(c(N3CCCc4cc(-c5cnn(C)c5)c(C(F)F)cc43)nn2[C@H]2CC[C@H](CN3CC4(Cc5cc6c(cc5C4)C(=O)N(C4CCC(=O)NC4=O)C6=O)C3)CC2)C1 (stereo partly drawn) [CP-088, 1-(((1r,4r)-4-(5-acetyl-3-(7-(difluoromethyl)-6-(1-methyl-1H-pyrazol-4-yl)-3,4-dihydroquinolin-1(2H)-yl)-4,5,6,7-tetrahydro-1H-pyrazolo[4,3-c]pyridin-1-yl)cyclohexyl)methyl)-2′-(2,6-dioxopiperidin-3-yl)-5′,7′-dihydro-1′H-spiro[azetidine-3,6′-cyclopenta[f]isoindole]-1′,3′(2′H)-dione] | – | – | – |
| < 50 | > 1000 | > 1000 | < 50 | CC(=O)N1CCc2c(c(N3CCCc4cc(-c5cnn(C)c5)c(C(F)F)cc43)nn2[C@H]2CC[C@H](CN3CCc4ccc5c(c4C3)C(=O)N(C3CCC(=O)NC3=O)C5=O)CC2)C1 (stereo partly drawn) [CP-089, 8-(((1r,4r)-4-(5-acetyl-3-(7-(difluoromethyl)-6-(1-methyl-1H-pyrazol-4-yl)-3,4-dihydroquinolin-1(2H)-yl)-4,5,6,7-tetrahydro-1H-pyrazolo[4,3-c]pyridin-1-yl)cyclohexyl)methyl)-2-(2,6-dioxopiperidin-3-yl)-6,7,8,9-tetrahydro-1H-pyrrolo[3,4-h]isoquinoline-1,3(2H)-dione] | – | – | – |
